These results are taken from article PMC4545913, “Dual EZH2 and EHMT2 histone methyltransferase inhibition increases biological efficacy in breast cancer cells” (Clinical Epigenetics, 2015).

pIC50: −log10 of the molar value.

The test system of assay [1] is SPINK1. Description: qRT-PCR of SPINK1 mRNA in MDA-MB-231 cells. In kind it is cell-based. Particulars: MDA-MB-231, multiple doses and time points. Here is the method:
Following compound treatment of MDA-MB-231 for 48 h (in 6-well plates), media was removed and 1.5 ml of TRIzol (Invitrogen) was added directly to lyse cells and RNA was isolated according to the manufacturer’s instructions. Reverse transcription was done using the SuperScript III First-Strand Synthesis System (Invitrogen) according to the manufacturer’s instructions. Each measurement was done in triplicate, and the List of Primers can be found in Additional file 2: Table S1. For normalisation, we have used GAPDH and RNA pol II. Experiments were also done with the ‘Fast Sybr Green Cell-to-CT™-Kit’ according to the manufacturer’s instructions (Applied Biosystem). Fifteen thousand cells per 96 well were plated, and after 24 h, treated with compounds at various concentrations.
For qRT-PCR measurements the 2x iQ SYBR Green Supermix (Bio-Rad), 200nM Primers and 0.4μl of cDNA /per 20μl reaction was used. The measurement was done in low-white 96-well plates (Bio-Rad) on a CFX96 Real-time System/C1000 Thermal Cycler (Bio-Rad) with the following protocol: 95°C for 3’; 95°C for 10’’, 56°C for 10’’, 72°C for 30’’ 42 cycles followed by a melting curve from 72°C to 95°C.

Assay [2] concerns MDA-MB-231 cells. As to the kind of experiment: Clonogenic growth assay. The format is cell-based. Particulars: Homo sapiens; MDA-MB-231, 48 h treatment then 12 days in fresh media. Here is the method:
(§1) For clonogenic assays, cells were treated with compound for 48 h, media were removed and replaced with fresh media for a further 12 days to measure colony formation. For cell viability assays, lymphoma cells were plated at 20,000 cells in 200 μl per well in U-bottom 96 well plates in RPMI medium +20 % FCS. Cells were re-suspended 48 h later, diluted 10-fold in PBS + propidium iodide (PI) and the concentration of PI negative cells was counted using an Attune flow cytometer with autosampler. Breast cancer cells were seeded at a density of 10,000 cells/well in a sterile 96 clear-well plate with 150 μl of DMEM (+10 % FCS and 2 mM L-Glutamine). Each compound treatment was performed in triplicate for 72 h at concentrations of 100 nM and 1, 5, 10 and 50 μM in 100 μl of full-medium. After 72 h, 20 μl of MTT solution (3 mg of MTT Formazan, Sigma/1 ml PBS) was added to the medium and incubated for 4 h at 37 °C in a CO2 incubator. The MTT-product was solubilised with 100 μl DMSO, and for 1 h, incubated in the dark at room temperature. The optical density was read at 570 nm with PHERAstar.

The subject of assay [3] is BT-474. As to the kind of experiment: MTT cell viability assay. In kind it is cell-based. Particulars: Homo sapiens, read-out: Cell growth IC50 BT-474. Here is the method:
as §1

Assay [4] deals with MCF-7. As to the kind of experiment: MTT cell viability assay. In kind it is cell-based. Particulars: Homo sapiens, MCF7, read-out: Cell growth IC50 MCF-7. Here is the method:
as §1

For assay [5], the system named is SkBr3. As to the kind of experiment: MTT cell viability assay. Particulars: Homo sapiens, SK-BR-3, read-out: Cell growth IC50 SkBr3. In kind it is cell-based. Here is the method:
as §1

Assay [6] relates to T-47D. Description: MTT cell viability assay. Particulars: Homo sapiens, T47D, read-out: Cell growth IC50 T-47D. The format is cell-based. Here is the method: as §1
For assay [7], the system named is MCF10a. Description: MTT cell viability assay, normal breast epithelial cell line. Particulars: Homo sapiens, MCF-10A, read-out: Cell growth IC50 MCF10a. In kind it is cell-based. Here is the method:
as §1

In assay [8] the target is trimeric PRC2 complex (EZH2:EED:SUZ12) (Homo sapiens, UniProt O75530+Q15022+Q15910). As to the kind of experiment: PRC2 enzymatic assay (SPA-type), biotinylated-H3 (21–44) peptide substrate. The format is biochemical. Particulars: EZH2:EED:SUZ12, biotinylated-H3 (21–44) peptide substrate. An excerpt: (§2) A trimeric PRC2 complex (EZH2:EED:SUZ12) was employed in this assay, along with a biotinylated-H3 (21–44) peptide substrate. […] Since the peptide substrates used in these assays are poor models for the complex and dynamic structure of the chromatin substrate in cells and since the only minimal number of PRC2 proteins (EZH2:EED:SUZ12) required for enzymatically active EZH2 were employed in the PRC2 assay, care should be taken in the over interpretation of this in vitro inhibitory data.

Assay [9] concerns the target trimeric PRC2 complex (EZH2:EED:SUZ12) (Homo sapiens, UniProt Q15910). The description is as above. Particulars: mechanism of inhibition studies (Figure S4). The format is biochemical.
Excerpt: as §2

Assay [10] concerns H3K27me3 and H3K9me3. Description: Western analysis of global histone marks in MDA-MB-231 cells. The format is cell-based. Particulars: range of doses. Here is the method:
MDA-MB-231 cells seeded in 6 well plates at a cell density of 3 x 10^5 were treated with HKMTI-1-005 (1–7.5uM) for 48 h. Following lysis in Triton Extraction Buffer (TEB, PBS containing 0.5 % Triton ×100 (v/v), 1/1000 protease inhibitor), nuclei were re-suspended in 0.2 N HCL at a density of 4 x 10^7 nuclei per millilitre and incubated overnight at 4 °C to acid-extract the histones, before being centrifuged at 6500g for 10 min at 4 °C. Protein concentration was determined using the Bradford assay. H3K27me3, H3K9me3, H3K9me2, H3K9me and total H3 protein expression levels in the histone extract samples were determined using Western blot analysis using H3K27me3 (1:1000; Abcam), H3K9me3 (1:1000; Abcam), H3K9me (1:1000) and H3 (1:2000; Abcam) antibodies. After washing, the membrane was incubated with a horseradish peroxidase-labelled secondary antibody (1 h, room temperature). The membrane was incubated for 1 min with 5 mL of Pierce ECL Western blotting substrate (Thermo Scientific). Images were captured using Konica Minolta SRX101A Tabletop X-Ray film processor.

In assay [11] the test system is MDA-MB-231 cells. Description: Caspase 3/7 activity (apoptosis). Particulars: MDA-MB-231, dose-dependent (Figure S2). In kind it is cell-based.

trimeric PRC2 complex (EZH2:EED:SUZ12) (Homo sapiens, UniProt Q15910), sequence (Q15910 whole entry): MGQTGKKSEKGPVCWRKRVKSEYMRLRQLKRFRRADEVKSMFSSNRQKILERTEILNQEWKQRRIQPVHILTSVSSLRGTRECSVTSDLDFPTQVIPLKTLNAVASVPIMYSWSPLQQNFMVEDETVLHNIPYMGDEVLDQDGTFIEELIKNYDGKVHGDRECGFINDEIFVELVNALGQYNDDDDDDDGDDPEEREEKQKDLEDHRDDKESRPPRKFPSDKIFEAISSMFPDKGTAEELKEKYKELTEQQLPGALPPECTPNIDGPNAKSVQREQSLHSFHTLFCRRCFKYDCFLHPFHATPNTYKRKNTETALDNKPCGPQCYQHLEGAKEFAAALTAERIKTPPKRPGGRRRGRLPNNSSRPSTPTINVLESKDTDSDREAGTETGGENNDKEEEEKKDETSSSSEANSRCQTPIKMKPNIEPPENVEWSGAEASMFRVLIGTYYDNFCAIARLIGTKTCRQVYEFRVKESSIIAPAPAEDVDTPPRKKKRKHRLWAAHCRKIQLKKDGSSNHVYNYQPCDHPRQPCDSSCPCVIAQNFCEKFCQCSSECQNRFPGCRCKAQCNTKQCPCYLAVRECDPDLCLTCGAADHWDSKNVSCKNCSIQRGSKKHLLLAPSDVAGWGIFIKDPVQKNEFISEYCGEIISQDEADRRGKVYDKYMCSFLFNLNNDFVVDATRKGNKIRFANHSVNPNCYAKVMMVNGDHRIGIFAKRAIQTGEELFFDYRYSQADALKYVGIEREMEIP
trimeric PRC2 complex (EZH2:EED:SUZ12) (Homo sapiens, UniProt Q15910), sequence (O75530 whole entry partner): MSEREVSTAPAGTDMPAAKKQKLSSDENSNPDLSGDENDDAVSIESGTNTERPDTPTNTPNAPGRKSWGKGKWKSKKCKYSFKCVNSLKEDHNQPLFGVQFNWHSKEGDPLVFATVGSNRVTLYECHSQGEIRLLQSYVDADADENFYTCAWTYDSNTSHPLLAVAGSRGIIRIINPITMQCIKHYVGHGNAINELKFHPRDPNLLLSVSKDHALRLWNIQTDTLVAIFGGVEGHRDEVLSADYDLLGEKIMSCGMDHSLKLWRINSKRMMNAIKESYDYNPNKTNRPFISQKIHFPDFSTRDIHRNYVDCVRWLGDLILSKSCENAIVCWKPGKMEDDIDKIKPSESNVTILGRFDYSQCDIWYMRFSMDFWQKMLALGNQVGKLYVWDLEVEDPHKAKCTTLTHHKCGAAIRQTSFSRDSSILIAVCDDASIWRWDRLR
trimeric PRC2 complex (EZH2:EED:SUZ12) (Homo sapiens, UniProt Q15910), sequence (Q15022 whole entry partner): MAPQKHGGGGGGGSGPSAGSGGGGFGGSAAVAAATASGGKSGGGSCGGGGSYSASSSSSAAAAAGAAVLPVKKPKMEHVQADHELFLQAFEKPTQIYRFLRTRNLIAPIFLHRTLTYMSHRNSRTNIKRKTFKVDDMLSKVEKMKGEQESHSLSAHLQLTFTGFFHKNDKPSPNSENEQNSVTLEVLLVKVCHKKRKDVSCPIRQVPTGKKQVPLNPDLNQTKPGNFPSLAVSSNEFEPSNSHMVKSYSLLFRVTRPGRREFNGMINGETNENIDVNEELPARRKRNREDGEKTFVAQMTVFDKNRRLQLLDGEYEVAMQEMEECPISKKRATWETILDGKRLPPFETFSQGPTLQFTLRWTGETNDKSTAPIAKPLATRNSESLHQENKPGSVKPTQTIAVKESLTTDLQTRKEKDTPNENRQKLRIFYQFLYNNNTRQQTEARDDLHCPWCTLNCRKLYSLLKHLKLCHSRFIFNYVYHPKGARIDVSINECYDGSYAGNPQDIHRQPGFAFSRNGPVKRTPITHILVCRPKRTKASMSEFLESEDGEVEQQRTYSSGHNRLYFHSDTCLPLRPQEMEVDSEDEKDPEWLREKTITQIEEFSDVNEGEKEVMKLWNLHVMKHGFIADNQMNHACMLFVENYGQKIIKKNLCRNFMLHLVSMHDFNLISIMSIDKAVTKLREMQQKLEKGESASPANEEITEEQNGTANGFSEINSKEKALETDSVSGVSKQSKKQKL
trimeric PRC2 complex (EZH2:EED:SUZ12) (Homo sapiens, UniProt O75530+Q15022+Q15910), sequence (Q15910 whole entry): as the sequence (Q15910 whole entry) above
trimeric PRC2 complex (EZH2:EED:SUZ12) (Homo sapiens, UniProt O75530+Q15022+Q15910), sequence (O75530 whole entry partner): as the sequence (O75530 whole entry partner) above
trimeric PRC2 complex (EZH2:EED:SUZ12) (Homo sapiens, UniProt O75530+Q15022+Q15910), sequence (Q15022 whole entry partner): as the sequence (Q15022 whole entry partner) above

For `COc1cc2nc(N3CCN(C)CC3)nc(NC3CCN(Cc4ccccc4)CC3)c2cc1OC` [HKMTI-1-005], in [1], the “SPINK1 expression upon treatment” value was “increased”. Besides, the pIC50 in assay [2] was 6.39; in assay [3] it was 5.68; in assay [4], 5.11; in [5], 5.11; in [6], 5.07; in assay [7], less than 4.82. In assay [8], this molecule showed a pIC50 of 4.62. In addition, the “Mechanism of PRC2 inhibition” value in assay [9] is “peptide substrate competitive”. The “Global levels of H3K27me3 and H3K9me3 (Western)” value in assay [10] is listed as “reduced”. In addition, the “Induction of apoptosis measured by Caspase 3/7 activity” value in assay [11] is given as “induces apoptosis”.
